Converted amounts (≈) assume the structure as drawn. Read-outs that look alike come from different tables or passages of the source.
How the values were obtained:
[1] = system: S. pneumoniae KCTC 3932; assay: Inhibition of macromolecular biosynthesis (radiolabeled precursor incorporation) in S. pneumoniae; type: cell-based, Streptococcus pneumoniae; details: drugs at 2 times the MIC
Description: (§1) To monitor the effects of compound 1 on lipid, DNA, RNA, protein, and cell wall biosynthesis, its effects on the incorporation of [1-^14C] acetate (50 mCi/mmol), [2-^14C] thymidine (59.8 mCi/mmol), [U-^14C] uridine (539 mCi/mmol), L-[U-^14C] leucine (306 mCi/mmol) or L-[U-^14C] isoleucine (329 mCi/mmol), and N-acetyl-D-[1-^14C] glucosamine (58.1 mCi/mmol) into S. aureus and S. pneumoniae were measured as described previously. S. aureus was exponentially grown to an A650 of 0.2 in Mueller–Hinton broth. S. pneumoniae was grown in tryptic soy broth supplemented with 5% sheep blood. […] An equal volume of DMSO solvent was added to the untreated control. After incubation with the radiolabeled precursors at 37°C for 1 h, followed by centrifugation, the cell pellets were washed twice with PBS buffer. After acetate incorporation, the total cellular lipids were extracted with chloroform-methanol-water. The incorporated radioactivity in the chloroform phase was measured by scintillation counting. For the other precursors, incorporation was terminated by adding 10% (w/v) TCA and cooling on ice for 20 min. The precipitated material was collected on Whatman GF/C glass microfiber filters, washed with TCA and ethanol, dried, and counted using a scintillation counter. The total counts incorporated at 1 h of incubation without inhibitors ranged from >7,000 for [U-^14C] uridine to <13,000 for [1-^14C] acetate. […] In all experiments, known antibacterial agents were included as positive controls.

[2] = biological target: T1, S. aureus FabI (Staphylococcus aureus, UniProt Q6GI75); assay: S. aureus FabI enzyme assay (NADPH use at 340 nm, t-o-NAC thioester substrate); type: biochemical
T1 construct: made in house
T1 sequence (Q6GI75 1-256): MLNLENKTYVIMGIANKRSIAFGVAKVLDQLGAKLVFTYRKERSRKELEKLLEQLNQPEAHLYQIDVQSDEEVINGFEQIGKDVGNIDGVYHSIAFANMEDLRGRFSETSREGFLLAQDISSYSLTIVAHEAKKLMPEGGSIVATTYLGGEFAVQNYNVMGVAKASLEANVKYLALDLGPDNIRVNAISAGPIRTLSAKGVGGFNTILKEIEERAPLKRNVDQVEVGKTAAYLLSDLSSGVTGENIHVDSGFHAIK
Text: (§2) S. aureus FabI and E. coli FabI enzymes were cloned, overexpressed, and purified as described previously. The wild-type fabK gene was amplified by PCR from genomic DNA obtained from Streptococcus pneumoniae KCTC 5412 by using the primers 5′-[…]-3′ and 5′-[…]-3′, which contained NdeI and XhoI restriction sites, respectively. After the DNA sequence was confirmed, the gene was cloned into the pET22b vector (Novagen, Gibbstown, NJ, USA). The construct was transformed into E. coli BL21 (DE3) for expression following induction with isopropylthiogalactoside. The C-terminal His-tagged protein was purified as described previously. Assays were conducted in half-area, 96-well microtiter plates. The compounds were dissolved in DMSO and evaluated in 100-μL assay mixtures containing components specific for each enzyme (see below). Reduction of the trans-2-octenoyl N-acetylcysteamine (t-o-NAC thioester) substrate analog was measured spectrophotometrically following the utilization of NADH or NADPH at 340 nm at 30°C for the linear period of the assay. S. aureus FabI assays contained 50 mM sodium acetate (pH 6.5), 200 μM t-o-NAC thioester, 200 μM NADPH, and 150 nM S. aureus FabI.
(§3) NADH was used as a cofactor rather than NADPH for the E. coli FabI assay. Substrate concentrations used for the Lineweaver–Burk plot were 100, 200, 300, and 400 μM, whereas the concentrations of the cofactor were 100, 200, 400, and 600 μM. The rate of decrease in the amount of NADPH in each reaction was measured with a microtiter enzyme-linked immunosorbent assay (ELISA) reader by using the SOFTmax PRO software (Molecular Devices, Sunnyvale, CA, USA). The inhibitory activity was calculated according to the following formula: % of inhibition = 100× [1− (rate in the presence of compound/rate in the untreated control)]. IC50 values were calculated by fitting the data to a sigmoid equation. An equal volume of DMSO solvent was used for the untreated control. FabK assays contained 100 mM sodium acetate (pH 6.5), 2% glycerol, 200 mM NH4Cl, 50 µM t-o-NAC thioester, 200 µM NADH, and 150 nM S. pneumoniae FabK.

[3] = system: S. aureus RN4220; assay: MIC by broth microdilution, S. aureus RN4220 (wild type); type: cell-based, Staphylococcus aureus; details: Staphylococcus aureus; S. aureus RN4220 (wild type)
Description: (§4) Whole-cell antimicrobial activity was determined by broth microdilution as described previously. The test strains except for S. pneumoniae were grown to mid-log phase in Mueller–Hinton broth and diluted 1,000-fold in the same medium. Cells (10^5/mL) were inoculated into Mueller–Hinton broth and dispensed at 0.2 mL/well into a 96-well microtiter plate. S. pneumoniae was grown in tryptic soy broth supplemented with 5% sheep blood. MICs were determined in triplicate by serial 2-fold dilutions of test compounds. […] Bacterial growth was determined by measuring the absorption at 650 nm by using a microtiter ELISA reader.

[4] = system: S. aureus RN4220 (pE194); assay: Overexpression assay, MIC for vector-containing S. aureus RN4220 (pE194); type: cell-based; details: Staphylococcus aureus, read-out: MIC S. aureus (pE194)
Description: as §4
(§5) An overexpression assay using S. aureus RN4220, S. aureus RN4220 (pE194), and S. aureus RN4220 (pE194-fabI) was conducted to perform target validation of FabI inhibitors as described previously. Additionally, both fabI- and fabK-overexpressing E. coli were constructed to test a multitarget effect of the compounds. The wild-type fabI gene from the genomic DNA of E. coli W3110 was amplified by PCR by using the primers 5′-[…]-3′ and 5′-[…]-3′. The wild-type fabK gene from the genomic DNA of S. pneumoniae KCTC 5412 was amplified by PCR by using the primers 5′-[…]-3′ and 5′-[…] […]-3′. The resulting products were cloned into the pBAD-TOPO TA expression vector (Invitrogen, Carlsbad, CA, USA) to yield the pBAD-fabI and pBAD-fabK recombinant plasmids, which placed the expression of the genes fabI and fabK, respectively, under the control of the arabinose promoter. Recombinant pBAD-fabI and pBAD-fabK were then introduced into the pump-negative (tolC) E. coli EW1b via electroporation to generate E. coli EW1b (pBAD-fabI) and E. coli EW1b (pBAD-fabK), respectively.

[5] = system: S. aureus RN4220 (pE194-fabI); assay: Overexpression assay, MIC for fabI-overexpressing S. aureus RN4220 (pE194-fabI); type: cell-based; details: Staphylococcus aureus, read-out: MIC S. aureus (pE194-fabI)
Description: as §4, §5

[6] = system: S. aureus RN4220; assay: Inhibition of macromolecular biosynthesis (radiolabeled precursor incorporation) in S. aureus; type: cell-based, Staphylococcus aureus; details: drugs at 2 times the MIC
Description: as §1

[7] = biological target: T2, E. coli FabI (Escherichia coli, UniProt P0AEK4); assay: E. coli FabI enzyme assay (NADH as cofactor); type: biochemical
T2 construct: made in house
Text: as §2, §3

[8] = biological target: T3, S. pneumoniae FabK (Streptococcus pneumoniae, UniProt Q9FBC5); assay: S. pneumoniae FabK enzyme assay; type: biochemical
T3 sequence (Q9FBC5 1-324): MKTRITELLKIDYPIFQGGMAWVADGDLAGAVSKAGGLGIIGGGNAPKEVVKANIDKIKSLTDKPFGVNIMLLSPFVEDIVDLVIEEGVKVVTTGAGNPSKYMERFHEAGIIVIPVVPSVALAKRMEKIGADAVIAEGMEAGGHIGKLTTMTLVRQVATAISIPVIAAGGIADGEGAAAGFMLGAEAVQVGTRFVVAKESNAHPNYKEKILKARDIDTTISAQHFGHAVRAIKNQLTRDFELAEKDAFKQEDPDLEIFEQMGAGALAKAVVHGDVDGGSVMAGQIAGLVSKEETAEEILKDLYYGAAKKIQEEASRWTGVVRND
Text: as §2, §3

[9] = system: E. coli KCTC 1924; assay: MIC by broth microdilution, E. coli KCTC 1924; type: cell-based; details: Escherichia coli, KCTC1924, read-out: MIC E. coli
Description: as §4

[10] = system: S. pneumoniae KCTC 3932; assay: MIC by broth microdilution, S. pneumoniae KCTC 3932; type: cell-based; details: Streptococcus pneumoniae, KCTC3932, read-out: MIC S. pneumoniae
Description: as §4

[11] = S. aureus FabI, read-out: IC50 saFabI

T2 sequence (P0AEK4 whole entry): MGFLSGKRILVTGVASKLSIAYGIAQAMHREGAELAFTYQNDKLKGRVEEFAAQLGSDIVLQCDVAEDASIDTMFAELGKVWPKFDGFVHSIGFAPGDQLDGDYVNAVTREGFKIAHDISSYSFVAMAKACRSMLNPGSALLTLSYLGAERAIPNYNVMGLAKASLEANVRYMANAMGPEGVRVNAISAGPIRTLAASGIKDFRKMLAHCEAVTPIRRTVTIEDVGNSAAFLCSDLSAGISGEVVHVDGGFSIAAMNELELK

Compound: C/C=C/C/C=C/CCC(=O)[C@H]1O[C@H]1C(N)=O [cerulenin, reference compound]
- Inhibition of precursor incorporation, [1-14C] Acetate [1]: 95%

Compound: CC[C@H]1OC(=O)[C@H](C)[C@@H](O[C@H]2C[C@@](C)(OC)[C@@H](O)[C@H](C)O2)[C@H](C)[C@@H](O[C@@H]2O[C@H](C)C[C@H](N(C)C)[C@H]2O)[C@](C)(O)C[C@@H](C)C(=O)[C@H](C)[C@@H](O)[C@]1(C)O [Erythromycin, reference compound]
- IC50 [2, 11]: > 100 µM
- MIC [3]: 0.5 µg/mL (≈ 0.681 µM)
- MIC [4]: 64 µg/mL (≈ 87.2 µM)
- MIC [5]: 64 µg/mL (≈ 87.2 µM)

Compound: CCn1cc(C(=O)O)c(=O)c2cc(F)c(N3CCNCC3)cc21 [Norfloxacin, reference compound]
- IC50 [2, 11]: > 100 µM
- MIC [3]: 1 µg/mL (≈ 3.13 µM)
- MIC [4]: 1 µg/mL (≈ 3.13 µM)
- MIC [5]: 1 µg/mL (≈ 3.13 µM)
- Inhibition of precursor incorporation, [2-14C] Thymidine [6]: 79%
- Inhibition of precursor incorporation, [2-14C] Thymidine [1]: 83%

Compound: C=CC(C)(C)C12C=C(O)C(=O)N3/C(=C/c4cnc[nH]4)C(=O)NC31Nc1ccccc12 (stereo not drawn) [Compound 2, glandicolin A]
- IC50 [2]: 54.6 µM
- IC50 [7]: 49.7 µM
- IC50 [8]: > 200 µM
- MIC [3]: 64 µg/mL (≈ 159 µM)
- MIC [9]: 64 µg/mL (≈ 159 µM)
- MIC [10]: 64 µg/mL (≈ 159 µM)

Compound: CN[C@H](CC(C)C)C(=O)N[C@H]1C(=O)N[C@@H](CC(N)=O)C(=O)N[C@H]2C(=O)N[C@H]3C(=O)N[C@H](C(=O)N[C@H](C(=O)O)c4cc(O)cc(O)c4-c4cc3ccc4O)[C@H](O)c3ccc(c(Cl)c3)Oc3cc2cc(c3O[C@@H]2O[C@H](CO)[C@@H](O)[C@H](O)[C@H]2O[C@H]2C[C@](C)(N)[C@H](O)[C@H](C)O2)Oc2ccc(cc2Cl)[C@H]1O [vancomycin, reference compound]
- Inhibition of precursor incorporation, N-Acetyl-D-[1-14C] Glucosamine [6]: 79%
- Inhibition of precursor incorporation, N-Acetyl-D-[1-14C] Glucosamine [1]: 88%

Compound: CO[C@H]1/C=C/O[C@@]2(C)Oc3c(C)c(O)c4c(O)c(c(/C=N/N5CCN(C)CC5)c(O)c4c3C2=O)NC(=O)/C(C)=C\C=C\[C@H](C)[C@H](O)[C@@H](C)[C@@H](O)[C@@H](C)[C@H](OC(C)=O)[C@@H]1C [rifampin, reference compound]
- Inhibition of precursor incorporation, [U-14C] Uridine [6]: 69%
- Inhibition of precursor incorporation, [U-14C] Uridine [1]: 92%
